Measured values: paper PMC11676886 (Pharmaceutics, 2024)
Converted amounts (≈) assume the structure as drawn.

Tests used:
[1] = physchem; format: physicochemical
Procedure: The mobile phase consisted of 50% acetonitrile and 50% purified water with a flow rate set to 1 mL/min and a column temperature set to 30 °C. The injection volume was 20 µL analyzed at a wavelength set to 230 nm for all analytical measurements.
Samples were prepared by the shake-flask method in glass vials containing 2 mg drug compound and 1 mL dispersion medium consisting of either buffer solutions (50 mM acetate buffer, pH 4.0 or 50 mM citric buffer, pH 3.0) or stabilizer solutions containing 1%, 2%, or 3% polysorbate 20 or vitamin E TPGS dissolved in the buffer solutions. The samples were rotated for 24 h at 40 rpm on a Multi-Rotator (PTR-60, Grant-Bio, Grant Instruments, Cambridgeshire, UK) while stored at 40 °C and protected from light. Samples were prepared in triplicate (n = 3). After equilibration, the samples were filtered with a 0.22 µm hydrophobic polytetrafluoroethylene membrane (VWR International, LLC, Radnor, PA, USA) with sampling tools equilibrated to 40 °C while the clear supernatant was diluted to an appropriate concentration with the mobile phase (50:50 acetonitrile and purified water) and analyzed by the method described above.

[2] = design: method as in doi:10.1016/j.jddst.2024.105605; conditions: 4% (w/v) polysorbate 20; cited from earlier work

- solubility at 24 h ([1]; 40 °C, pH 3, aqueous buffer, thermodynamic from solid): 2 µg/mL (≈ 5.59 µM)
- solubility at 24 h ([1]; 40 °C, pH 4, aqueous buffer, thermodynamic from solid): 3 µg/mL (≈ 8.38 µM)
- solubility at 24 h ([1]; pH 4): 640 µg/mL (≈ 1790 µM)
SMILES: COc1ccc2c(c1)c(CC(=O)O)c(C)n2C(=O)c1ccc(Cl)cc1 [indomethacin]
- solubility [2]: approximately 0.70 mg/mL
